Like-named read-outs stand apart in the source and are kept apart here.
How the values were obtained:
[1] = tested on: cells derived from the spleen; conditions: IV administration, separate study
Description: The complexes are prepared as described above except that 5 mM citrate and 150 mM NaCl are used as buffer. To determine the transfection efficiency, the spleen is removed from mice on day 5. Cells are recovered by crushing the spleen on a slide and observing EGFP fluorescence by fluorescent microscopy. The cell type is identified by cross-staining staining the preparation with labeled MAC1 antibody (macrophage identification) or labeled mannosylated BSA (identification of mannose receptor containing cells) (Current Protocols in Immunology).
In the study evaluating the distribution and blood clearance of DNA following an IV administration, labeled DNA is separately complexed with modified spermines (only monocomplexes of any one spermine is used in this study). Mannose (mono and bis) and lactose (mono and tri) spermines are used separately in these complexes. Unmodified spermine and spermidine complexes with DNA serve as controls.

[2] = Example 3: tissue distribution of labeled DNA after IV administration; conditions: for total amount of CPMs in all of the organs combined, rank order: 5 days following IV, lung, heart, kidney, spleen, liver
Description: (§1) DNA is complexed with spermines as described in the previous two examples at the optimal charge ratio of 0.8 with either the monolactosyl, trilactosyl, or mannosyl (mono and bis) spermine to achieve a final DNA concentration of 1.0 mg/mL in citrate buffer at 5 mM and 150 mM NaCl.
(§2) The mice, 5 per group, are injected intravenously through the tail vein (100 uL). Mice are sacrificed at various times as indicated for serum analysis of plasmid DNA to determine blood clearance. To determine the amount of plasmid in blood, one mL of serum is placed in liquid scintillation counters with fluor to quantify the CPMs associated with each sample. In order to determine tissue distribution, various organs are harvested on day 5 (peak of expression from previous studies) and snap frozen. Whole organs from the animals are harvested livers from 3 animals in the group of 5 are ground in mild alkali (100 mM KOH) and neutralized with acid (HCl) prior to scintillation counting. Livers from the remaining two animals are embedded in paraffin and sectioned as described in Example 2 and stained for betagalactosidase activity, as described.
(§3) In the second part of the study, distribution of DNA amongst some of the major organs is evaluated 5 days following IV administration. A simple tissue grind and scintillation counting is carried out. The organs chosen (lung, heart, kidney, spleen, and liver) for analysis represent the major capillary beds.

[3] = Example 3: blood clearance of 14C-labeled plasmid DNA after IV administration
Description: Bacteria containing the beta-galactosidase expression plasmid are grown in minimal M9 media (Miller, CSHS laboratory Press) in glucose as the sole carbon source overnight. The cells are washed in minimal media thrice through centrifugation and resuspension in M9 media without the carbon source, and resuspended in M9 with uniformally 14C-labeled ribose (NEN, MA) and deoxynucleosides (NEN, MA) for 3 hours. The cells are harvested, and the plasmid is isolated using Qiagen miniprep columns (Qiagen, Inc., CA). The labeled plasmid is mixed with unlabeled plasmid to achieve a specific activity of 3 million CPM per 100 ug plasmid.
as §1
The mice, 5 per group, are injected intravenously through the tail vein (100 uL). Mice are sacrificed at various times as indicated for serum analysis of plasmid DNA to determine blood clearance. To determine the amount of plasmid in blood, one mL of serum is placed in liquid scintillation counters with fluor to quantify the CPMs associated with each sample. […]

[4] = Example 4: oral delivery of luciferase plasmid microemulsions
Description: The objective is to develop microemulsion (ME) formulations designed for oral delivery of DNA. Microemulsions for oral delivery are prepared using a mixture that contains DNA or other nucleic acids (2.0 mg/mL in, e.g., 30 mM citrate, 150 mM NaCl pH 6.8 buffer) and benzalkonium chloride (0.1%). The mixture is further mixed in equal volumes to a mixture that contains seven parts of Labrasol™ (Gattefosse, Saint-Priest Cedex, France), one part of Lauroglycol (polypropylene esters such as Lauroglycol FCC for oral administration from Gattefosse, France) and two parts of ethanol. Other formulations contain bupivacaine at 0.25%, octyl spermine at 2.0 mg/mL, or cholesteryl spermine at 2.0 mg/mL, instead of benzalkonium chloride and lauroglycol in the above formulation. […] The DNA tested is an expression plasmid for luciferase (Promega Corp.). […] The formulation (100 uL) containing DNA is fed to mice (5 in one formulation group) by intubating the stomach. Five days following administration, several organs including kidney, liver, lung, intestinal segments (ileum, duodenum, small intestine and large intestine), brain, heart, and spleen are harvested and snap frozen. The tissues are homogenized in luciferase buffer (Promega Corp., Madison, Wis.) using a polytron. Luciferase activity is determined using a luminometer (Berthold) and in the assay buffer (Promega Corp., Madison, Wis.).

[5] = Example 4: phase location of DNA in cationic amphiphile emulsions; assay type: physicochemical; conditions: formulation containing the named cationic amphiphile
[6] = In vivo transfection with local anesthetic complexed DNA versus naked DNA; conditions: IL12 DNA complexed with 0.25% bupivacaine
Source text: As compared to cationic lipids, simple structures derived from water-soluble amphiphiles have a higher probability of forming transfecting structures that are uniform and homogenous, which is expected to result in increased efficiency, predictability, and potency. We selected cationic amphiphiles that are membrane active, such as the local anesthetics, e.g., bupivacaine (see U.S. Pat. No. 6,383,512, “Vesicular complexes and methods of making and using the same,” which describes compositions comprising lamellar vesicles that comprise a local anesthetic, e.g., bupivacaine, and a nucleic acid molecule). In particular, this reference describes compositions and methods for delivery of nucleic acid molecules that are antisense, ribozyme, or triplex forming nucleic acid molecules, as well as nucleic acid molecules that encode proteins (e.g., non-immunogenic therapeutically effective proteins, and immunogenic proteins designed to elicit a desired immune response in a host). Experiments were carried out to determine whether such vesicular complexes could be used to deliver dsRNA expression constructs capable of eliciting RNAi. […] Additionally, these are currently used in humans, and their toxicity/dose profiles are well characterized. In contrast, the associated toxicity of lipids that transfect efficiently in vitro may preclude their use in vivo. […]

[7] = tested on: liver cells (hepatocytes, Kupfer cells); conditions: IV; for liver cell type transfected: betagal staining of liver slices
Description: The mixture is injected intravenously (100 uL) of 5 mice for each formulation variant. Formulations variants included different charge ratios and various lactosyl spermine to cholesteryl spermine ratios. At 5 days postinjection, when in vivo plasmid expression peaks, the mice are sacrificed, and their livers are removed and snap frozen for histological analysis. Several slices of the liver tissue both near and farther from the major blood vessels and the bile ducts are embedded into paraffin and sectioned using a microtome. The tissue slices are stained using X-gal (an enzymatic substrate for betagalactosidase). The liver tissue slices are stained using labeled lactosylated BSA, as a cross stain to identify hepatocytes (asialoglycoprotein receptor). The slides are viewed under an UV fluoroscent microscope to detect the label fluorescence, and the betgal stain is observed under light microscopy. Control mice are administered “naked” DNA free of added complexing agents and DNA complexed with either lactosyl spermine or cholesteryl spermine, but not both.

[8] = tested on: peritoneal cells (macrophages, dendritic cells)
Description: Peritoneal fluid was isolated from mice. Plasmid DNA designed to express the green fluorescent protein (GFP) in mammalian cells was complexed with a mixture of the two spermines, mannosyl-mannosyl-spermine and cholesteryl spermine, at different ratios. The complexes were applied to peritoneal cells in culture. The fluorescence intensity of the cells were recorded. The complexes that were prepared for the ex vivo study were injected into the peritoneal cavity of mice. Four and five days following the injection, the cells were collected from the peritoneal cavity and spun down on slides and their ability to fluoresce was determined. The fluorescence intensities were recorded visually.
Labeled antibodies to defined cell surface markers were used to identify the cell type.

[9] = mouse, in vivo, iv
Description: as §1, §2, §3

[10] = tested on: IL-12 p40; assay: Example 5: serum IL-12 p40 ELISA after intramuscular IL-12 plasmid in Balb/C mice; conditions: mouse, in vivo
Description: Expression of the murine IL-12 transgenes was achieved through the use of vectors containing the HCMV IE promoter and SV40 polyadenation signal. ELISA of serum IL-12 p40 levels affords a facile system to analyze expression levels and the effectiveness of the administered DNA. p40 is one of the two polypeptide chains comprising IL-12.
In all of the RNAi studies described here using IL12 DNA (IL12, dsRNA producing vector and vector encoding T7 RNA polymerase), IL12 DNA was administered as a complex with bupivacaine, a local anesthetic, since higher in vivo transfection efficiencies (˜3×) are achieved with this complex over those mediated by naked DNA. […]
In another set of experiments, murine IL-12 p40 expression in sera was monitored in mice following intramuscular injection of a 100 ug dose of murine IL-12 expression plasmids or in naïve mouse controls that were not injected. […]
Murine IL-12 p40 serum expression was monitored following intramuscular injection of 100 ug IL-12 expression plasmids in mice injected at days 0 and 150 or in mice injected only at day 150. […]

In the case of CC(=O)O.CC(=O)O.CC(=O)O.CC(=O)O.NCCCN(CCCCCNC(=O)CCS[C@H]1O[C@H](CO)[C@@H](O)[C@H](O)[C@@H]1O)CCCCN(CCCN)CCCCCNC(=O)CCS[C@H]1O[C@H](CO)[C@@H](O)[C@H](O)[C@@H]1O [bismannosyl spermine, N^4,N^8-bis (5-N-(α-3′-propionamido thiomannoside)pentyl)-spermine tetraacetate], the “cells taking up the complexes” value [1] is reported as “taken up exclusively by cells of the macrophage and dendritic cell lineages”, the “total amount of CPMs in all of the organs combined, rank order” value [2] is reported as “trilactosyl>monolactosyl≅bismannosyl≅monomannosyl>>>controls” and the “blood clearance slower than trilactosyl spermine complexes” value ([3]; DNA monocomplex) is reported as 50-100 times. For the same molecule, the “blood clearance of DNA” value ([3]; DNA monocomplex with the named spermine, charge ratio 0.8) was “rapid clearance”.

In the case of CCCCN1CCCCC1C(=O)Nc1c(C)cccc1C (centres unmarked) [bupivacaine, reference compound], the “systemic absorption of DNA” value ([4]; mouse, in vivo, po) is reported as “Maximal systemic absorption”, the “phase of the oil in water emulsion that holds the DNA” value (“phase of the oil” below) [5] is reported as “in the oil phase” and the “in vivo transfection efficiency over naked DNA” value [6] is reported as roughly 3 ×.

For CC(C)CCC[C@@H](C)[C@H]1CC[C@H]2[C@@H]3CC=C4C[C@@H](OC(=O)NCCCCCN(CCCN)CCCCNCCCN)CC[C@]4(C)[C@H]3CC[C@]12C.Cl [cholesteryl spermine, N^4-(5-N-(3β-O-carbamoyl-5-cholestene)-1-pentyl)-spermine Hydrochloride], the “systemic absorption of DNA” value ([4]; oral microemulsion containing the named cationic amphiphile) was “Maximal systemic absorption” and the “phase of the oil” value [5] was “in the oil phase”.

For “N^4-(5-(trilactosyllysyllysyl) amidopentyl spermine triacetate [trilactosyl spermine]”, the “total amount of CPMs in all of the organs combined, rank order” value [2] was “trilactosyl>monolactosyl≅bismannosyl≅monomannosyl>>>controls”.

In the case of benzalkonium chloride, the “systemic absorption of DNA” value ([4]; mouse, in vivo, po) is reported as “Maximal systemic absorption” and the “phase of the oil” value [5] is reported as “in the oil phase”.

For lactosyl spermine, the “liver cell type transfected” value [7] was “primarily transfect hepatocytes”, the “DNA internalization, cell type” value ([7]; liver sections, day 5) was “exclusively into hepatocytes” and the betagalactosidase expression ([7]; liver sections, no cholesteryl spermine in complex) was “poor”. The “retention of DNA” value ([2]; IV, DNA monocomplex with modified spermine) was 30%.

In the case of mannosyl spermine, the “liver cell type transfected” value [7] is reported as “transfect Kupfer cells”, the “expression from the internalized plasmid” value ([8]; GFP plasmid) is reported as “observed only when cholesteryl spermine was included” and the “internalization of labeled DNA particles” value ([8]; all of the tested ratios) is reported as “internalized”. The “retention of DNA” value [9] was 85%.

For octyl spermine, the “systemic absorption of DNA” value ([4]; mouse, in vivo, po) was “Maximal systemic absorption” and the “phase of the oil” value [5] was “in the oil phase”.

B1: recombinant murine IL-12: recombinant murine IL-12 protein, 50 ug at day 0 (protein, UniProt P43431 23-215; P43432 23-335, looked up)
Interleukin-12 subunit alpha: RVIPVSGPARCLSQSRNLLKTTDDMVKTAREKLKHYSCTAEDIDHEDITRDQTSTLKTCLPLELHKNESCLATRETSSTTRGSCLPPQKTSLMMTLCLGSIYEDLKMYQTEFQAINAALQNHNHQQIILDKGMLVAIDELMQSLNHNGETLRQKPPVGEADPYRVKMKLCILLHAFSTRVVTINRVMGYLSSA
Interleukin-12 subunit beta: MWELEKDVYVVEVDWTPDAPGETVNLTCDTPEEDDITWTSDQRHGVIGSGKTLTITVKEFLDAGQYTCHKGGETLSHSHLLLHKKENGIWSTEILKNFKNKTFLKCEAPNYSGRFTCSWLVQRNMDLKFNIKSSSSSPDSRAVTCGMASLSAEKVTLDQRDYEKYSVSCQEDVTCPTAEETLPIELALEARQQNKYENYSTSFFIRDIIKPDPPKNLQMKPLKNSQVEVSWEYPDSWSTPHSYFSLKFFVRIQRKKEKMKETEEGCNQKGAFLVEKTSTEVQCKGGNVCVQAQDRYYNSSCSKWACVPCRVRS
For B1, the “effect of pre-treatment on IL-12 expression” value [10] was “does not prevent subsequent expression”.
